Where a name gives a salt, the structure may show the parent alone.
Key:
Format in all cases: in vivo
[1] = Topical ocular composition (Example 212), allergic symptoms; details: 0.50 wt % topical composition
[2] = Topical ocular composition (Example 212), dry eye syndrome; details: 0.50 wt % topical composition, drop twice per day
[3] = Topical ocular composition (Example 212), hyperemia, redness and ocular irritation; details: 0.50 wt % topical composition, drop as needed
[4] = test system: patient suffering from glaucoma; assay: Topical ocular composition (Example 212) lowering intraocular pressure; details: 0.50 wt % topical composition
Method: Examples of such assays are described in the following reference, incorporated herein by reference: C. Liljebris, G. Selen. B. Resul, J. Sternschantz, and U. Hacksell, “Derivatives of 17-Phenyl-18, 19, 20-trinorprostaglandin F2α Isopropyl Ester: Potential Anti-glaucoma Agents”, Journal of Medicinal Chemistry, Vol. 38 (2) 1995, pp. 289-304.
Topical pharmaceutical compositions for lowering intraocular pressure are prepared by conventional methods and formulated as follows: […]
A compound according to this invention is used as the 6-aminoisoquinoline derivative. […]

[5] = Topical ocular composition (Example 212), neuroprotective effect; details: 0.50 wt % topical composition, drop 4 times per day

O=C(CCl)Nc1ccc2cnccc2c1 [Example E1, 2-chloro-N-(isoquinolin-6-yl) acetamide]
allergic symptoms ([1]; drop twice per day): substantially decreases allergic symptoms
dry eye syndrome [2]: relieves dry eye syndrome

NCC(=O)Nc1ccc2cnccc2c1 [Example E40, 2-amino-N-isoquinoline-6-yl-acetamide dihydrochloride]
hyperemia, redness and ocular irritation [3]: substantially decreases hyperemia, redness and ocular irritation

O=C(CNCc1ccccc1)Nc1ccc2cnccc2c1 [Example E58, 2-(benzylamino)-N-(isoquinolin-6-yl)acetamide]
intraocular pressure ([4]; drop twice per day): substantially decreases intraocular pressure

O=C(Nc1ccc2cnccc2c1)OCc1ccccc1 [Example E87, benzylisoquinolin-6-ylcarbamate]
allergic symptoms ([1]; drop twice per day): substantially decreases allergic symptoms
dry eye syndrome [2]: relieves dry eye syndrome

O=C(NCc1ccccc1)Nc1ccc2cnccc2c1 [Example E88, 1-benzyl-3-(isoquinolin-6-yl)urea]
allergic symptoms ([1]; drop as needed): substantially decreases allergic symptoms

O=C(CN1CCOCC1)Nc1ccc2cnccc2c1 [Example E105, N-(isoquinolin-6-yl)-2-morpholinoacetamide]
hyperemia, redness and ocular irritation [3]: substantially decreases hyperemia, redness and ocular irritation

O=C(Nc1ccncc1)c1ccc(C2CC2C(=O)Nc2ccc3cnccc3c2)cc1 (stereo not shown) [Example E118, 4-(2-(isoquinolin-6-ylcarbamoyl)cyclopropyl)-N-(pyridin-4-yl)benzamide]
intraocular pressure ([4]; drop twice a day or as needed): substantially decreases intraocular pressure

CNC(=O)c1cccc(NCC(=O)Nc2ccc3cnccc3c2Cl)c1 [Example E119b, 3-(2-(5-chloroisoquinolin-6-ylamino)-2-oxoethylamino)-N-methyl benzamide]
intraocular pressure ([4]; drop twice a day or as needed): substantially decreases intraocular pressure

CNC(=O)c1cccc(NCS(=O)(=O)Nc2ccc3cnccc3c2)c1 [Example E136, 3-((N-isoquinolin-6-ylsulfamoyl)methylamino)-N-methylbenzamide]
intraocular pressure ([4]; drop twice per day): substantially decreases intraocular pressure

N[C@@H](CSCC(C(=O)c1ccc(/C=C/C(=O)Nc2ccc3cnccc3c2)cc1)c1ccccc1)C(=O)O (stereo partly drawn) [Example E207, (2R)-2-amino-3-(3-(4-((E)-3-(isoquinolin-6-ylamino)-3-oxoprop-1-enyl)phenyl)-3-oxo-2-phenylpropylthio)propanoic acid]
intraocular pressure ([4]; drop 4 times per day): substantially decreases intraocular pressure
neuroprotective agent [5]: serves as a neuroprotective agent
